{
  "source": "paper PMC165446",
  "about": "(BMC Microbiology, 2003)",
  "target": "T1, methionine adenosyltransferase (MAT; S-adenosylmethionine synthetase) (Mycolicibacterium smegmatis, UniProt A0QWT3)",
  "T1 sequence (A0QWT3 1-399)": "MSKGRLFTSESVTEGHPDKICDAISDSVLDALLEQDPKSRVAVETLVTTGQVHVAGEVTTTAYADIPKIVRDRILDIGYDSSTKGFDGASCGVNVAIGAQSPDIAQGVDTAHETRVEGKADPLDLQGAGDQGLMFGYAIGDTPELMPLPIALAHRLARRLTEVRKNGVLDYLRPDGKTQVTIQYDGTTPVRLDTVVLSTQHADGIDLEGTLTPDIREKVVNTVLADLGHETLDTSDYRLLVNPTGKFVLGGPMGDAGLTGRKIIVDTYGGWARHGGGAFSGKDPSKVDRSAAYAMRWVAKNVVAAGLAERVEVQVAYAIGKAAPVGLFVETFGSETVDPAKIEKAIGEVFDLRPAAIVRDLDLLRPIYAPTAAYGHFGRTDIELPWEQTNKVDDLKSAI",
  "assay": "HPLC assay of SAM formation, Dixon plots with varied ATP",
  "type": "biochemical",
  "data": [
    {"smiles": "Nc1nc2nn[nH]c2c(=O)[nH]1", "note": "[8-azaguanine]", "values": [
      {"measurement": "Ki", "result": "4.7 ± 0.77", "unit": "mM"}
    ]},
    {"smiles": "Cn1cnc([N+](=O)[O-])c1Sc1ncnc2nc[nH]c12", "note": "[azathioprine]", "values": [
      {"measurement": "Ki", "result": "3.74 ± 1", "unit": "mM"}
    ]}
  ]
}
